# From patent US7964531B2, “3-phenoxy-4-pyridazinol derivatives and herbicidal composition containing the same” (Mitsui Chemicals Agro, Inc., priority 2001, dated 2011)
# Tests used:
# Type in all cases: in vivo
# Details in all cases: wettable powder applied 3 days after transplanting, judged after 25 days
# [1] = test system: Cyperus serotinus; assay: Test Example 1: herbicidal effects, paddy-field pot test
# Outline: (§1)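 Herbicidal effect and rice injury were graded on a six-step growth-inhibition scale (0: 0–10% to 5: 91–100%) at 25 days after pot application of water-diluted wettable powder, given 3 days post-transplant under flooded greenhouse conditions.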
# [2] = test system: Scirpus joncoides; assay: as above
# Outline: as §1
# [3] = test system: barnyardgrass (Echinochloa oryzicola Vasing.); assay: as above
# Outline: as §1
# [4] = test system: annual broad-leaved weeds (Lindernia spp., Rotala indica); assay: as above
# Outline: as §1
# [5] = test system: transplanted paddy-field rice; assay: Test Example 1: crop injury against transplanted paddy-field rice
# Outline: as §1
Compound,Herbicidal effects Cyperus serotinus ([1]; chemical dosage 10 g/a),Herbicidal effects Cyperus serotinus ([1]; chemical dosage 20 g/a),Herbicidal effects Scirpus joncoides ([2]; chemical dosage 10 g/a),Herbicidal effects Scirpus joncoides ([2]; chemical dosage 20 g/a),Herbicidal effects Barnyard grass ([3]; chemical dosage 10 g/a),Herbicidal effects Barnyard grass ([3]; chemical dosage 20 g/a),Herbicidal effects Broad leaf ([4]; chemical dosage 10 g/a),Herbicidal effects Broad leaf ([4]; chemical dosage 20 g/a),Crop injury against transplanted rice ([5]; chemical dosage 10 g/a),Crop injury against transplanted rice ([5]; chemical dosage 20 g/a),Herbicidal effects Cyperus serotinus ([1]; chemical dosage 12.5 g/a),Herbicidal effects Cyperus serotinus ([1]; chemical dosage 25 g/a),Herbicidal effects Scirpus joncoides ([2]; chemical dosage 12.5 g/a),Herbicidal effects Scirpus joncoides ([2]; chemical dosage 25 g/a),Herbicidal effects Barnyard grass ([3]; chemical dosage 12.5 g/a),Herbicidal effects Barnyard grass ([3]; chemical dosage 25 g/a),Herbicidal effects Broad leaf ([4]; chemical dosage 12.5 g/a),Herbicidal effects Broad leaf ([4]; chemical dosage 25 g/a),Crop injury against transplanted rice ([5]; chemical dosage 12.5 g/a),Crop injury against transplanted rice ([5]; chemical dosage 25 g/a)
Oc1cc(Cl)nnc1Oc1c(C2CC2)cccc1C1CC1 [Example 275],5 (Growth inhibition rate; 91 to 100%),5 (Growth inhibition rate; 91 to 100%),5 (Growth inhibition rate; 91 to 100%),5 (Growth inhibition rate; 91 to 100%),4 (Growth inhibition rate; 71 to 90%),4 (Growth inhibition rate; 71 to 90%),5 (Growth inhibition rate; 91 to 100%),5 (Growth inhibition rate; 91 to 100%),1 (Growth inhibition rate; 11 to 30%),3 (Growth inhibition rate; 51 to 70%),–,–,–,–,–,–,–,–,–,–
COc1cccc(C2CC2)c1Oc1nnc(Cl)cc1O [Example 276],5 (Growth inhibition rate; 91 to 100%),5 (Growth inhibition rate; 91 to 100%),3 (Growth inhibition rate; 51 to 70%),4 (Growth inhibition rate; 71 to 90%),3 (Growth inhibition rate; 51 to 70%),4 (Growth inhibition rate; 71 to 90%),5 (Growth inhibition rate; 91 to 100%),5 (Growth inhibition rate; 91 to 100%),0 (Growth inhibition rate; 0 to 10%),0 (Growth inhibition rate; 0 to 10%),–,–,–,–,–,–,–,–,–,–
CCOc1cccc(C2CC2)c1Oc1nnc(Cl)cc1O [Example 277],5 (Growth inhibition rate; 91 to 100%),5 (Growth inhibition rate; 91 to 100%),–,5 (Growth inhibition rate; 91 to 100%),0 (Growth inhibition rate; 0 to 10%),1 (Growth inhibition rate; 11 to 30%),5 (Growth inhibition rate; 91 to 100%),5 (Growth inhibition rate; 91 to 100%),0 (Growth inhibition rate; 0 to 10%),0 (Growth inhibition rate; 0 to 10%),–,–,–,–,–,–,–,–,–,–
Cc1cc(C)cc(Oc2nnc(Cl)cc2O)c1 [Example 281],–,–,–,–,–,–,–,–,–,–,5 (Growth inhibition rate; 91 to 100%),5 (Growth inhibition rate; 91 to 100%),2 (Growth inhibition rate; 31 to 50%),3 (Growth inhibition rate; 51 to 70%),0 (Growth inhibition rate; 0 to 10%),0 (Growth inhibition rate; 0 to 10%),5 (Growth inhibition rate; 91 to 100%),5 (Growth inhibition rate; 91 to 100%),0 (Growth inhibition rate; 0 to 10%),0 (Growth inhibition rate; 0 to 10%)
Cc1cc(Oc2nnc(Cl)cc2O)cc(C(C)C)c1 [Example 282],–,–,–,–,–,–,–,–,–,–,4 (Growth inhibition rate; 71 to 90%),5 (Growth inhibition rate; 91 to 100%),3 (Growth inhibition rate; 51 to 70%),4 (Growth inhibition rate; 71 to 90%),0 (Growth inhibition rate; 0 to 10%),0 (Growth inhibition rate; 0 to 10%),5 (Growth inhibition rate; 91 to 100%),5 (Growth inhibition rate; 91 to 100%),0 (Growth inhibition rate; 0 to 10%),0 (Growth inhibition rate; 0 to 10%)
Cc1cc(C)c(Br)c(Oc2nnc(Cl)cc2O)c1 [Example 285],2 (Growth inhibition rate; 31 to 50%),3 (Growth inhibition rate; 51 to 70%),4 (Growth inhibition rate; 71 to 90%),5 (Growth inhibition rate; 91 to 100%),0 (Growth inhibition rate; 0 to 10%),0 (Growth inhibition rate; 0 to 10%),5 (Growth inhibition rate; 91 to 100%),5 (Growth inhibition rate; 91 to 100%),0 (Growth inhibition rate; 0 to 10%),0 (Growth inhibition rate; 0 to 10%),–,–,–,–,–,–,–,–,–,–
Cc1cc(C)c(C)c(Oc2nnc(Cl)cc2O)c1 [Example 286],–,–,–,–,–,–,–,–,–,–,5 (Growth inhibition rate; 91 to 100%),5 (Growth inhibition rate; 91 to 100%),5 (Growth inhibition rate; 91 to 100%),5 (Growth inhibition rate; 91 to 100%),0 (Growth inhibition rate; 0 to 10%),0 (Growth inhibition rate; 0 to 10%),5 (Growth inhibition rate; 91 to 100%),5 (Growth inhibition rate; 91 to 100%),0 (Growth inhibition rate; 0 to 10%),0 (Growth inhibition rate; 0 to 10%)
CCCc1c(C)cc(C)cc1Oc1nnc(Cl)cc1O [Example 287],–,–,–,–,–,–,–,–,–,–,1 (Growth inhibition rate; 11 to 30%),3 (Growth inhibition rate; 51 to 70%),5 (Growth inhibition rate; 91 to 100%),5 (Growth inhibition rate; 91 to 100%),0 (Growth inhibition rate; 0 to 10%),0 (Growth inhibition rate; 0 to 10%),5 (Growth inhibition rate; 91 to 100%),5 (Growth inhibition rate; 91 to 100%),0 (Growth inhibition rate; 0 to 10%),0 (Growth inhibition rate; 0 to 10%)
CSc1c(C)cc(C)cc1Oc1nnc(Cl)cc1O [Example 289],–,–,–,–,–,–,–,–,–,–,4 (Growth inhibition rate; 71 to 90%),5 (Growth inhibition rate; 91 to 100%),4 (Growth inhibition rate; 71 to 90%),5 (Growth inhibition rate; 91 to 100%),0 (Growth inhibition rate; 0 to 10%),0 (Growth inhibition rate; 0 to 10%),4 (Growth inhibition rate; 71 to 90%),5 (Growth inhibition rate; 91 to 100%),0 (Growth inhibition rate; 0 to 10%),0 (Growth inhibition rate; 0 to 10%)
Cc1ccc(C)c(Oc2nnc(Cl)cc2O)c1Br [Example 290],5 (Growth inhibition rate; 91 to 100%),–,4 (Growth inhibition rate; 71 to 90%),–,0 (Growth inhibition rate; 0 to 10%),–,5 (Growth inhibition rate; 91 to 100%),–,0 (Growth inhibition rate; 0 to 10%),–,–,–,–,–,–,–,–,–,–,–
Cc1ccc(Br)c(Oc2nnc(Cl)cc2O)c1C [Example 294],5 (Growth inhibition rate; 91 to 100%),5 (Growth inhibition rate; 91 to 100%),5 (Growth inhibition rate; 91 to 100%),5 (Growth inhibition rate; 91 to 100%),1 (Growth inhibition rate; 11 to 30%),2 (Growth inhibition rate; 31 to 50%),5 (Growth inhibition rate; 91 to 100%),5 (Growth inhibition rate; 91 to 100%),0 (Growth inhibition rate; 0 to 10%),0 (Growth inhibition rate; 0 to 10%),–,–,–,–,–,–,–,–,–,–
